Experimental data published in patent US20260209272A1 (priority 2022, published 2026).
Ends that are not written are not given here.

How the values were obtained:
Phytophthora infestans [1] = format: in vivo
Phytophthora infestans [2] = format: in vivo; remark: listed apart in the source
[3] = system: Phytophthora infestans zoospores
detached potato leaves = detached potato leaves treated with peptide plus water, no inoculum; 9 = clean leaves

Substance | protection among concentrations tested with and without LI-700 (Phytophthora infestans [1]; large plants, 400 μM peptide) | severity of symptoms compared with non-treated control group, combination (Phytophthora infestans [1]; plant assays, low dose Peptide V1 (25 μM) combined with low dose of Mancozeb) | severity of symptoms compared with non-treated control group (Phytophthora infestans [1]; plant assays, low dose alone (Peptide V1 25 μM; low dose of Mancozeb)) | disease reduction (Phytophthora infestans [1]; whole plant assays, 400 μM peptide concentration) | protection against infection (in words), experiment repeated one week later (Phytophthora infestans [2]; 400 uM, detached potato leaves) | average score (1-9 scale of late blight infection) (Phytophthora infestans [2]; 6 days after Phytophthora infection, 50 sporangia/ul final, 4 drops of 10 ul per leaflet, 20 C, peptides 400 uM final, Mancozeb product diluted 1:1000, 9 = no symptoms, water positive control 6.56) | late blight lesions, peptide expressed in E. coli (Phytophthora infestans [2]; detached leaf assay, Peptide V1 expressed in E. coli) | protection (in words), further repeat, first time (Phytophthora infestans [2]; detached potato leaves) | protection (in words), further repeat, second time (Phytophthora infestans [2]; detached potato leaves) | overall conclusion on efficacy (Phytophthora infestans [2]; over all detached leaf experiments) | activity in the presence of other agrochemical active ingredients ([3]; FIG. 9 legend) | zoospore germination, peptide expressed in E. coli ([3]; Peptide V1 expressed in E. coli) | additive or synergistic effects with chemical fungicides ([3]; Peptide V1 with either Mancozeb or Fungonil (Chlorothalonil), germination assays) | score (1-9 scale), negative control without Phytophthora infestans inoculation (detached potato leaves)
RITAQIRL [Peptide V1] | best protection | approximately the same | approximately the same | approximately 60% | almost as good at reducing infection | 8.37 | it allowed the development of minor late blight lesions, it is noteworthy that these lesions did not progress | some protection | excellent protection | consistently works well | retains its activity | completely inhibited zoospore germination | did not indicate any evidence of additive or synergistic effects | 
RNTAQIP [Peptide V2, RNTAQIP] |  |  |  |  |  |  |  |  |  |  |  |  |  | 8.67
